Structures are written as SMILES.

Chain of 5-hydroxytryptamine receptor 6 (P50406 whole entry): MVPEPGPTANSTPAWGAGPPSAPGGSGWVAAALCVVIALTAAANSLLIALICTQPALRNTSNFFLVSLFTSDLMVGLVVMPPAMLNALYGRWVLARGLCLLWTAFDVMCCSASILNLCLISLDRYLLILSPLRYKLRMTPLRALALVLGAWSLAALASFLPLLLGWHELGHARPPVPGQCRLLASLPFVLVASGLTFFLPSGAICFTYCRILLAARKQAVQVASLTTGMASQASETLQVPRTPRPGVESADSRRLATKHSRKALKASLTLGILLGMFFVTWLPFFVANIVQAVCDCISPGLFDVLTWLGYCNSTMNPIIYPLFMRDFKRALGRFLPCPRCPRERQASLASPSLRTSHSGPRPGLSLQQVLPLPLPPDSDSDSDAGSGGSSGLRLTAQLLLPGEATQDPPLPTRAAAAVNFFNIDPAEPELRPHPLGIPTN

The experiment concerns the target 5-hydroxytryptamine receptor 6 (Homo sapiens, UniProt P50406). The experiment in a line: Antagonist activity at human 5HT6 receptor expressed in HeLa cells assessed as inhibition of 5-HT-induced cAMP accumulation. The experiment is classed as functional, cell-based. On the technique in general: cAMP levels reflect the balance of adenylyl cyclase and phosphodiesterase activity.
As usually defined, the IC50 is the point on the concentration scale where inhibition reaches its midpoint. In the case of `CN1CCC(c2n[nH]c3ccc(S(=O)(=O)c4cccc5ccccc45)cc23)CC1`, the IC50 amounted to 251 nM and the Imax is 100%.
As for `CN1CCC(c2n[nH]c3ccc(S(=O)(=O)c4cccc(Cl)c4)cc23)CC1`, the IC50 stood at 754 nM and the Imax was 95%.
For the molecule `CC(C)c1ccc(S(=O)(=O)c2ccc3[nH]nc(C4CCN(C)CC4)c3c2)cc1`, the half-maximal inhibitory concentration (IC50) amounted to 108 nM and the Imax is 100%.
On to `CN1CCC(c2n[nH]c3ccc(S(=O)(=O)c4ccc5ccccc5c4)cc23)CC1`, for which the IC50 was 102 nM and the Imax was 100%.

The values are drawn from ChEMBL document CHEMBL1781981, “Identification of a novel series of 3-piperidinyl-5-sulfonylindazoles as potent 5-HT6 ligands” (Bioorg Med Chem Lett, 2009).
